Format in all cases: functional
For experiment [1], the system named is Candida albicans. Briefly: Antifungal activity against Candida albicans.
For experiment [2], the system named is Candida parapsilosis. Briefly: Antifungal activity against Candida parapsilosis. To be noted: Lodderomyces parapsilosis.
Experiment [3] has as its system Candida tropicalis. In words: Antifungal activity against Candida tropicalis.
Experiment [4] has as its system Cryptococcus neoformans. Briefly: Antifungal activity against Cryptococcus neoformans.
Experiment [5] concerns Aspergillus fumigatus. Briefly: Antifungal activity against Aspergillus fumigatus.
In experiment [6] the test system is Fonsecaea pedrosoi. Briefly: Antifungal activity against Fonsecaea pedrosoi.
For experiment [7], the system named is Trichophyton rubrum. In words: Antifungal activity against Trichophyton rubrum.
For experiment [8], the system named is Microsporum. Briefly: Antifungal activity against Microsporum lanosum.
The test system of experiment [9] is Sporothrix schenckii. Briefly: Antifungal activity against Sporothrix schenckii.

Values after ≈ are worked out from the molar mass of the structure shown.

`CN(Cc1ccc(NC(=O)c2ccccc2)cc1)CC(O)(Cn1cncn1)c1ccc(F)cc1F` (centres undefined): the MIC80 in [1] is 0.031 µg/mL (≈ 0.0649 µM); in experiment [2] it was 0.0625 µg/mL (≈ 0.131 µM); in experiment [3], 0.125 µg/mL (≈ 0.262 µM); in [4] it was 1 µg/mL (≈ 2.09 µM); in experiment [5] it was 32 µg/mL (≈ 67 µM); in experiment [6], 1 µg/mL (≈ 2.09 µM). The MIC80 in [7] was 0.5 µg/mL (≈ 1.05 µM); in experiment [8], 4 µg/mL (≈ 8.38 µM).

For the compound `CN(Cc1ccc(-n2cnn(Cc3ccc([N+](=O)[O-])cc3)c2=O)cc1)CC(O)(Cn1cncn1)c1ccc(F)cc1F` (centres undefined), the MIC80 amounted to 0.0625 µg/mL (≈ 0.108 µM) in [1]; 0.25 µg/mL (≈ 0.434 µM) in experiment [2]; 0.0625 µg/mL (≈ 0.108 µM) in experiment [3]; 16 µg/mL (≈ 27.8 µM) in experiment [4]; 64 µg/mL (≈ 111 µM) in [5]; 4 µg/mL (≈ 6.94 µM) in experiment [6]. The MIC80 came to 16 µg/mL (≈ 27.8 µM) in [7] and 64 µg/mL (≈ 111 µM) in [9].

As to `Cc1cccc(Cn2ncn(-c3ccc(CN(C)CC(O)(Cn4cncn4)c4ccc(F)cc4F)cc3)c2=O)c1` (centres undefined), the MIC80 in experiment [1] worked out at 0.004 µg/mL (≈ 0.00733 µM); in [2], 0.008 µg/mL (≈ 0.0147 µM); in experiment [3], 0.125 µg/mL (≈ 0.229 µM); in experiment [4] it was 1 µg/mL (≈ 1.83 µM); in [5] it was 16 µg/mL (≈ 29.3 µM); in experiment [6], 1.25 µg/mL (≈ 2.29 µM). The results for the MIC80 in experiment [7] and in experiment [9] were 0.5 µg/mL (≈ 0.916 µM) and 64 µg/mL (≈ 117 µM), respectively.

Take `CN(Cc1ccc(NC(=O)c2ccc(I)cc2)cc1)CC(O)(Cn1cncn1)c1ccc(F)cc1F` (centres undefined): the MIC80 in experiment [1] was 0.0625 µg/mL (≈ 0.104 µM); in experiment [2], 0.5 µg/mL (≈ 0.829 µM); in experiment [3], 0.25 µg/mL (≈ 0.414 µM); in experiment [4] it was at most 0.031 µg/mL; in experiment [5], above 64 µg/mL; in experiment [6] it was at most 0.125 µg/mL. In addition, the MIC80 in experiment [7] and in experiment [8] was at most 0.125 µg/mL each time.

On to `Cc1cccc(C(=O)Nc2ccc(CN(C)CC(O)(Cn3cncn3)c3ccc(F)cc3F)cc2)c1` (centres undefined), for which the MIC80 in [1] came to 0.031 µg/mL (≈ 0.0631 µM); in [2], 0.0625 µg/mL (≈ 0.127 µM); in experiment [3], 1 µg/mL (≈ 2.03 µM); in [4], 1 µg/mL (≈ 2.03 µM); in experiment [5], 16 µg/mL (≈ 32.6 µM); in [6] it was 0.5 µg/mL (≈ 1.02 µM). For the same compound, the MIC80 in experiment [7] was at most 0.125 µg/mL; in experiment [8] it was 0.25 µg/mL (≈ 0.509 µM).

For the compound `CN(Cc1ccc(NC(=O)c2ccc(Cl)cc2Cl)cc1)CC(O)(Cn1cncn1)c1ccc(F)cc1F` (centres undefined), the MIC80 in experiment [1] was 0.016 µg/mL (≈ 0.0293 µM); in experiment [2], 0.125 µg/mL (≈ 0.229 µM); in experiment [3], 0.5 µg/mL (≈ 0.915 µM); in experiment [4], 0.0625 µg/mL (≈ 0.114 µM); in experiment [5], 16 µg/mL (≈ 29.3 µM); in [6], at most 0.125 µg/mL. In addition, the MIC80 in experiment [7] and in [8] was 0.5 µg/mL (≈ 0.915 µM) in each case.

For the compound `CN(Cc1ccc(-n2cnn(Cc3ccccc3Cl)c2=O)cc1)CC(O)(Cn1cncn1)c1ccc(F)cc1F` (centres undefined), the MIC80 stood at 0.004 µg/mL (≈ 0.00707 µM) in experiment [1]; 0.06 µg/mL (≈ 0.106 µM) in experiment [2]; 0.125 µg/mL (≈ 0.221 µM) in [3]; 1 µg/mL (≈ 1.77 µM) in experiment [4]; 32 µg/mL (≈ 56.5 µM) in [5]; 0.5 µg/mL (≈ 0.883 µM) in experiment [6]. In addition, the MIC80 was found to be 4 µg/mL (≈ 7.07 µM) in experiment [7] and 32 µg/mL (≈ 56.5 µM) in experiment [9].

As to `CN(Cc1ccc(-n2cnn(Cc3ccccc3F)c2=O)cc1)CC(O)(Cn1cncn1)c1ccc(F)cc1F` (centres undefined), the MIC80 in [1] was 0.031 µg/mL (≈ 0.0564 µM); in experiment [2] it was 2 µg/mL (≈ 3.64 µM); in experiment [3], 0.0625 µg/mL (≈ 0.114 µM); in [4] it was 1 µg/mL (≈ 1.82 µM); in experiment [5], 32 µg/mL (≈ 58.2 µM); in experiment [6], 0.0625 µg/mL (≈ 0.114 µM). Moreover, the MIC80 is 1 µg/mL (≈ 1.82 µM) in [7] and 64 µg/mL (≈ 116 µM) in experiment [9].

Regarding `CN(Cc1ccc(-n2cnn(Cc3cccc(I)c3)c2=O)cc1)CC(O)(Cn1cncn1)c1ccc(F)cc1F` (centres undefined), the MIC80 amounted to 0.002 µg/mL (≈ 0.00304 µM) in [1]; 0.008 µg/mL (≈ 0.0122 µM) in [2]; 0.0625 µg/mL (≈ 0.0951 µM) in [3]; 0.25 µg/mL (≈ 0.38 µM) in [4]; 2 µg/mL (≈ 3.04 µM) in experiment [5]; 0.0625 µg/mL (≈ 0.0951 µM) in [6]. Further, the MIC80 in experiment [7] was 0.25 µg/mL (≈ 0.38 µM); in [9] it was 64 µg/mL (≈ 97.3 µM).

Consider `CN(Cc1ccc(-n2cnn(Cc3ccc(F)cc3)c2=O)cc1)CC(O)(Cn1cncn1)c1ccc(F)cc1F` (centres undefined), for which the MIC80 in [1] came out at 0.004 µg/mL (≈ 0.00728 µM); in [2], 4 µg/mL (≈ 7.28 µM); in experiment [3], 1 µg/mL (≈ 1.82 µM); in experiment [4], 4 µg/mL (≈ 7.28 µM); in experiment [5], 64 µg/mL (≈ 116 µM); in [6], 1 µg/mL (≈ 1.82 µM). For the same compound, the MIC80 in experiment [7] stood at 8 µg/mL (≈ 14.6 µM); in experiment [9] it was 32 µg/mL (≈ 58.2 µM).

On to `CN(Cc1ccc(NC(=O)c2ccc(Br)cc2)cc1)CC(O)(Cn1cncn1)c1ccc(F)cc1F` (centres undefined), for which the MIC80 in experiment [1] was 0.008 µg/mL (≈ 0.0144 µM); in experiment [2] it was 0.016 µg/mL (≈ 0.0288 µM); in experiment [3], 0.016 µg/mL (≈ 0.0288 µM); in experiment [4], 0.125 µg/mL (≈ 0.225 µM); in [5], 16 µg/mL (≈ 28.8 µM); in experiment [6] it was at most 0.125 µg/mL. The MIC80 was at most 0.125 µg/mL in experiment [7] and 0.25 µg/mL (≈ 0.449 µM) in experiment [8].

As for `CN(Cc1ccc(-n2cnn(Cc3ccccc3)c2=O)cc1)CC(O)(Cn1cncn1)c1ccc(F)cc1F` (centres undefined), the MIC80 in experiment [1] was found to be 0.031 µg/mL (≈ 0.0583 µM); in experiment [2], 0.016 µg/mL (≈ 0.0301 µM); in experiment [3] it was 1 µg/mL (≈ 1.88 µM); in [4], 64 µg/mL (≈ 120 µM); in experiment [5], 64 µg/mL (≈ 120 µM); in experiment [6] it was 0.5 µg/mL (≈ 0.941 µM). The figures for the MIC80 in [7] and in experiment [9] were 16 µg/mL (≈ 30.1 µM) and 64 µg/mL (≈ 120 µM), respectively.

In the case of `CCc1ccc(Cn2ncn(-c3ccc(CN(C)CC(O)(Cn4cncn4)c4ccc(F)cc4F)cc3)c2=O)cc1` (centres undefined), the MIC80 in [1] came to 0.008 µg/mL (≈ 0.0143 µM); in [2] it was 0.008 µg/mL (≈ 0.0143 µM); in experiment [3], 0.25 µg/mL (≈ 0.447 µM); in experiment [4] it was 0.5 µg/mL (≈ 0.893 µM); in experiment [5], 8 µg/mL (≈ 14.3 µM); in experiment [6], 0.25 µg/mL (≈ 0.447 µM). For the same compound, the MIC80 was determined as 0.5 µg/mL (≈ 0.893 µM) in [7] and 64 µg/mL (≈ 114 µM) in experiment [9].

As usually defined, the MIC80 is an inhibitory concentration at the 80% level, which refers to growth in some studies and to a panel of isolates in others.

Values taken from ChEMBL document CHEMBL1146065, “Structure-based optimization of azole antifungal agents by CoMFA, CoMSIA, and molecular docking” (2006).
